Patent publication US8435983B2, “Conformationally restrained epothilone analogues as anti-leukemic agents” (The University of Toledo, priority 2007, dated 2013)
Where two headings read alike, the source gives them in different places.

Legend:
[1] = test system: CCRF-CEM leukemia cell line; conditions: comparison value for paclitaxel; cited from earlier work
SR leukemia cell line [2] = conditions: comparison value for paclitaxel; cited from earlier work
[3] = test system: CCRF-CEM leukemia cell line; test: NCI in vitro 60 cell line human tumor screen, CCRF-CEM; type: cell-based; conditions: NCI 60 cell line screen
[4] = test system: NCI 60 human tumor cell lines, including breast cancer and ovarian cancer cell lines; test: NCI in vitro 60 cell line human tumor screen, cell line panel; type: cell-based
SR leukemia cell line [5] = test: NCI in vitro 60 cell line human tumor screen, SR; type: cell-based; conditions: NCI 60 cell line screen
[6] = test system: BCF-7 breast cancer cells; test: preliminary growth inhibition assay on BCF-7 breast cancer cells; type: cell-based

CC(=O)O[C@H]1C(=O)[C@@]2(C)[C@H]([C@H](OC(=O)c3ccccc3)[C@]3(O)C[C@H](OC(=O)[C@H](O)[C@@H](NC(=O)c4ccccc4)c4ccccc4)C(C)=C1C3(C)C)[C@]1(OC(C)=O)CO[C@@H]1C[C@@H]2O [paclitaxel]
GI50 [1]: 12.6 nM | GI50 (SR leukemia cell line [2]): 15.8 nM

CC1=C(c2ccc(C)cn2)C[C@H]2/C=C(/C)CCC[C@H](C)[C@H](O)[C@@H](C)C(=O)C(C)(C)[C@@H](O)CC(=O)O[C@H]12 [Compound 1b, (3S,6R,7S,8S,1′S,5′S)-7,11-Dihydroxy-3,8,8,10,12,16-hexamethyl-2-(5-methyl-pyridin-2-yl)-3a,7,8,10,11,12,13,14,15,17a-decahydro-1H,6H-4-oxa-cyclopentacyclohexadecene-5,9-dione]
GI50 [3]: 2.7 nM | growth inhibitory activity on the other NCI 60 cell lines ([4]; all lines other than CCRF-CEM and SR, including breast cancer and ovarian cancer cell lines): no significant activity | GI50 (SR leukemia cell line [5]): 2.9 nM

C=C(C)CCC[C@H](C)[C@H](O)[C@@H](C)C(=O)C(C)(C)[C@@H](O)CC(=O)O[C@@H]1C(C)=C(c2ccc(C)cn2)C[C@H]1/C=C/c1ccccc1 [Compound 35, 3,7-Dihydroxy-4,4,6,8,12-pentamethyl-5-oxo-tridec-12-enoic acid 2-methyl-3-(5-methyl-pyridin-2-yl)-5-styryl-cyclopent-2-enyl ester]
activity in the NCI 60 cell line assay ([4]; any of the cell lines): no significant activity

CC1=C(c2ccccc2)C[C@H]2/C=C(/C)CCC[C@H](C)[C@H](O)[C@@H](C)C(=O)C(C)(C)[C@@H](O)CC(=O)O[C@H]12 [Compound 1a]
growth inhibition [6]: no activity
